Test results: PMC6388407 (Toxicological sciences : an official journal of the Society …, 2018)
Like-named read-outs stand apart in the source and are kept apart here.

Columns and labels:
[1] = system: L5178Y mouse lymphoma cells; assay: MTS cell proliferation assay; assay type: cell-based; conditions: 4-h treatment; for reduction in cell viability, MTS assay: at the lowest concentrations tested; for IC20: read-out: IC20, MTS assay, L5178Y cells
[2] = system: L5178Y mouse lymphoma cells; assay: Cellular ATP level assay; assay type: cell-based; conditions: read-out: IC20, ATP assay; L5178Y cells, 4-h treatment
[3] = system: L5178Y mouse lymphoma cells; assay: CellTiter-Blue cell viability assay; assay type: cell-based; conditions: read-out: IC20, Blue assay; L5178Y cells, 4-h treatment
[4] = system: thymidine kinase (Tk) gene of the L5178Y/Tk+/− −3.7.2C mouse lymphoma cell line; assay: Mouse lymphoma assay; assay type: cell-based; conditions: for BMDL10, MLA with S9: lower limit of the 10% BMD, Hill model of PROAST, MF data; for Ranking, MLA with S9: potency ranking by BMDL10, 1 = most potent
[5] = system: thymidine kinase (Tk) gene of the L5178Y/Tk+/− −3.7.2C mouse lymphoma cell line; assay: Mouse lymphoma assay; assay type: cell-based; conditions: for BMDL10, MLA without S9: lower limit of the 10% BMD, Hill model of PROAST, MF data; for Ranking, MLA without S9: potency ranking by BMDL10, 1 = most potent
[6] = system: L5178Y mouse lymphoma cells; assay: Alkaline Comet assay; assay type: cell-based; conditions: for lowest concentration that induced significant DNA damage / highest percentage of DNA in tail: 4-h treatment; for lowest concentration that induced significant DNA damage: absence of S9; for highest percentage of DNA in tail: absence of S9, background approximately 5%; for BMDL10, Comet assay: lower limit of the 10% BMD, Hill model of PROAST, %DNA in tail data, without S9
[7] = system: TK6 human lymphoblastoid cells; conditions: ref Guo et al., 2013; cited from earlier work
[8] = system: thymidine kinase (Tk) gene of the L5178Y/Tk+/− −3.7.2C mouse lymphoma cell line; conditions: ref Guo et al., 2013, cited from earlier work
[9] = system: thymidine kinase (Tk) gene of the L5178Y/Tk+/− −3.7.2C mouse lymphoma cell line; conditions: with S9, at concentration that produced 10%–20% RTG; ref Guo et al., 2013; cited from earlier work
[10] = system: Tk mutants of L5178Y mouse lymphoma cells; assay: LOH evaluation of Tk mutants from the MLA; assay type: cell-based; conditions: with vs without S9, p < .05
[11] = MTS cell proliferation assay; assay type: cell-based, mouse; conditions: mouse
[12] = system: Chinese hamster ovary AS52 cells; conditions: CHO AS52 cells; ref DeGraff et al., 1992; cited from earlier work
[13] = Cellular ATP level assay; assay type: cell-based, mouse; conditions: mouse, L5178Y mouse lymphoma cells
[14] = CellTiter-Blue cell viability assay; assay type: cell-based, mouse; conditions: mouse, L5178Y mouse lymphoma cells
[15] = system: Chinese hamster cells; conditions: ref Mitchell et al., 1991, cited from earlier work
[16] = absence of S9, at the cytotoxicity limit for the MLA
[17] = without S9, at concentration that produced 10%–20% RTG

SMILES	reduction in cell viability, MTS assay [1]	IC20 [1] [µM]	IC20 [2] [µM]	IC20 [3] [µM]	BMDL10, MLA with S9 [4]	Ranking, MLA with S9 [4]	mutant frequency (MF) [5, 16]	BMDL10, MLA without S9 [5]	Ranking, MLA without S9 [5]	lowest concentration that induced significant DNA damage [6] [mM]	highest percentage of DNA in tail [6] [%]	BMDL10, Comet assay [6]	effect of metabolic activation on mutational spectra (LOH) [10]	other results
COC1CC(C)(C)N([O])C(C)(C)C1 [4-methoxy-TEMPO]	approximately 50%	30	3870	2580	0.770	3	537 × 10^−6	0.756	2	6	13	3.358		mutant frequency (MF) ([4]; with S9, at concentration that produced 10%–20% RTG): 961 per million cells; mutant frequency (MF) [5, 17]: 508 per million cells
CC1(C)CCCC(C)(C)N1[O] [TEMPO, 2,2,6,6-tetramethylphiperidine-1-oxyl]	approximately 50%	11	1920	4970	0.257	2		0.981	3	2	28	0.454	significantly altered	micronucleus induction [7]: induced micronuclei; mutant frequency (MF) [8, 16]: 208 × 10^−6; MLA result ([8]; earlier study, with and without 1% S9): mutagenic; mutant frequency (MF) [8, 17]: 208 per million cells; mutant frequency (MF) [9]: 502 per million cells
CC1(C)CC(=O)CC(C)(C)N1[O] [4-oxo-TEMPO]		1550	1730	1950	0.058	1	584 × 10^−6	0.661	1	3	14	1.114		
CC1(C)CC(O)CC(C)(C)N1[O] [4-hydroxy-TEMPO]	approximately 50%				1.024	4		1.300	4	4	21	1.612	significantly altered	IC20 at 4 h [11]: 356 µM; mutagenicity and toxicity [12]: not mutagenic or toxic; IC20 at 4 h [13]: 6390 µM; IC20 at 4 h [14]: 1780 µM; radiation protection factor ([15]; 10 mM for 10 min prior to X-irradiation): 1.3; radiation protection factor ([15]; 100 mM for 10 min prior to X-irradiation): 2.5
